What follows are molecules tested against Keap1 (Homo sapiens (Human), UniProt Q14145) (assay: HEK293 ARE luciferase assay). Conditions: HEK-293 ARE firefly luciferase transiently transfected cells; 18 h incubation; mean of 1 to 20 individual measurements.
Type: cell-based
Summary of the method: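 Transiently transfected HEK-293 ARE firefly luciferase cells (10,000/well, DMEM with 10% FCS) exposed to compound, 10-point curve from 100 μM top, 0.3% DMSO, 18 h at 37 °C. SteadyGlo luminescence; activity normalised to 30 μM tBHQ (stimulator) and DMSO (neutral), activity threshold 50; means of 1-20 measurements.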

Chain of Keap1 (Q14145 whole entry): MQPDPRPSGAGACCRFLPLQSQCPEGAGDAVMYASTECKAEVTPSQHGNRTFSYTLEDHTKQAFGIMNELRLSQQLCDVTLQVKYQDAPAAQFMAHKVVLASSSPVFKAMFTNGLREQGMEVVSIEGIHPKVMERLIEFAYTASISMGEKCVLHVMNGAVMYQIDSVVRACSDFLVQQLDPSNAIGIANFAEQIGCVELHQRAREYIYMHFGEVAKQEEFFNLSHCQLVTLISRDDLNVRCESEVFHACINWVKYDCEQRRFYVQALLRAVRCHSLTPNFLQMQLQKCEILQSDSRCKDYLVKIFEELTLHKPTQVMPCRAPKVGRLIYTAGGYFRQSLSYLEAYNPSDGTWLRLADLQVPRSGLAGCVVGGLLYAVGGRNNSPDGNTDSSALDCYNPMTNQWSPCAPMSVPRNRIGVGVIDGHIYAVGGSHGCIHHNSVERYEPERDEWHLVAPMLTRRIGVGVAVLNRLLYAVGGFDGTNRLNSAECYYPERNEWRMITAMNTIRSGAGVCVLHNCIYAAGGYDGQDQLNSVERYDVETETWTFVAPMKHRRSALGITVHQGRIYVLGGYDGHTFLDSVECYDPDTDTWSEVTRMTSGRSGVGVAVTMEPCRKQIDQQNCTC

SMILES	EC50 [nM]
COC1(c2ncc(F)cc2-c2ccc3nc(C)cn3c2)C=C(C#N)C(=O)C(C)(C)C1 (single isomer, unassigned) [Compound 201, 3-[5-fluoro-3-(2-methylimidazo[1,2-a]pyridin-6-yl)pyridin-2-yl]-3-methoxy-5,5-dimethyl-6-oxocyclohex-1-ene-1-carbonitrile]	182
COC1(c2cccc(-c3c(C)noc3C)n2)C=C(C#N)C(=O)C(C)(C)C1 (stereo not shown) [Compound 105, 3-(6-(3,5-dimethylisoxazol-4-yl)pyridin-2-yl)-3-methoxy-5,5-dimethyl-6-oxocyclohex-1-ene-1-carbonitrile]	36
COC1(c2ncc(F)cc2-c2cncc(C#N)c2)C=C(C#N)C(=O)C(C)(C)C1 (single isomer, unassigned) [Compound 85, 2′-(3-cyano-1-methoxy-5,5-dimethyl-4-oxocyclohex-2-enyl)-5′-fluoro-3,3′-bipyridine-5-carbonitrile]	6
CO[C@]1(c2ncc(F)cc2C(F)F)C=C(C#N)C(=O)C(C)(C)C1 [Compound 42, (3S)-3-[3-(difluoromethyl)-5-fluoropyridin-2-yl]-3-methoxy-5,5-dimethyl-6-oxocyclohex-1-ene-1-carbonitrile]	33
COC1(c2ncc(F)cc2-c2cncc(C3CC3)c2)C=C(C#N)C(=O)C(C)(C)C1 (single isomer, unassigned) [Compound 232, 3-(5′-cyclopropyl-5-fluoro[3,3′-bipyridin]-2-yl)-3-methoxy-5,5-dimethyl-6-oxocyclohex-1-ene-1-carbonitrile]	23
COC1(c2ncc(F)cc2-c2cncc(S(C)(=O)=O)c2)C=C(C#N)C(=O)C(C)(C)C1 (stereo not shown) [Compound 96, 3-(5-fluoro-5′-(methylsulfonyl)-[3,3′-bipyridin]-2-yl)-3-methoxy-5,5-dimethyl-6-oxocyclohex-1-ene-1-carbonitrile]	7
COC1(c2ncc(F)cc2F)C=C(C#N)C(=O)C2(CC2)C1 (stereo not shown) [Compound 156, 7-(3,5-difluoropyridin-2-yl)-7-methoxy-4-oxospiro[2.5]oct-5-ene-5-carbonitrile]	249
